How the values were obtained:
HepG2 liver cancer cells = assay: MTT cytotoxicity assay, HepG2; assay type: cell-based; details: Homo sapiens, 72 h cell treatment
Experimental: (§1) The cells (5 × 10^4 cells/well) were incubated overnight in 96-well plates. A series of solutions containing varying concentrations of inhibitors were added and incubated at 37°C for a period of 72 h. Subsequently, the culture medium was removed, followed by a subsequent incubation of the cells with a 5 mg/mL MTT stock solution for 4 h. After centrifugation, the precipitate was solubilized in DMSO and gently shaken for 15 min. Finally, the absorbance measurement at 570 nm was completed using a microplate reader. Data analysis was performed using GraphPad Prism 6.0 software.

HEK293 = assay: MTT cytotoxicity assay, HEK293 normal cells; assay type: cell-based; details: Homo sapiens, 72 h cell treatment
Experimental: as §1

Ace-K62 of PKM2 = assay: Gene expression analysis of Ace-K62 of PKM2 in HepG2 cells; assay type: cell-based, human; details: 20 h, 0.25, 1 and 5 μM
Experimental: Total RNA was extracted after the indicated treatments using the RNeasy Mini Kit (cat. no. 74106; QIAGEN, Hilden, Germany) following the manufacturer’s protocol. The concentration of RNA was measured on a plate reader, and then the extracted RNA was converted to cDNA using a High-Capacity RNA-to-cDNA kit from Applied Biosystems (Thermo Fisher Scientific, Inc.). Quantitative real-time polymerase chain reaction was performed in triplicate in a 96-well optical PCR plate using a QuantStudio Real-Time PCR System. Gene expression levels were evaluated using the comparative CT method. Graphical representations of the data were generated by GraphPad Prism 8.
Previous studies indicate that MPS1 inhibitor exerts its antitumor effects by downregulating the levels of phosphorylated histone H3 ([Naud et al., 2013]), while HDAC8 inhibitor achieves its antitumor activity by upregulating lysine residue 62 acetylation (Ace-K62) levels of pyruvate kinase M2 (PKM2) ([Zhang et al., 2020]). The gene expression of P-histone H3 and Ace-K62 was detected in HepG2 cells with the treatment of MPH-5 for 20 h (at the concentration of 0, 0.25, 1, and 5 μM, respectively). […] As the concentration of MPH-5 increases, the inhibitory effect on P-histone H3 and the promotional effect on Ace-K62 become more pronounced.

[1] = In vivo pharmacokinetic study; details: mouse, plasma, ip, BALB/c mice, i.p., 5 mg/kg
Experimental: MPH-5 was administered intraperitoneally to BALB/c mice at a dose of 5 mg/kg. The blood samples (0.25 mL) were collected at 0.25, 0.5, 1, 2, 4, 8, 16 and 24 h after dosing and centrifuged to obtain the plasma fraction. Plasma samples (50 μL) were transferred into a 96-well plate, followed by the addition of an internal standard solution of methanol/acetonitrile (1:1, v/v) (200 μL). After vortexing for 5 min, the mixture was centrifuged (12,000 rpm for 5 min) to obtain the supernatant (60 μL). A liquid chromatography-tandem mass spectrometry (LC-MS/MS) system was used for the pharmacokinetic study. Data were processed using Phoenix software.

Cn1cc(-c2cc3cnc(Nc4ccc(-c5cncn5/C=C/C(=O)NO)cc4Cl)cc3n2C(=O)OC(C)(C)C)cn1 [MPH-5]
IC50 (HepG2 liver cancer cells): 0.19 µM
IC50 (HEK293): > 10 µM
K62 acetylation levels (Ace-K62 of PKM2) (Ace-K62 of PKM2): dose-dependent regulation
AUC ([1]; read-out: AUC (h·nmol/L), area under the drug-time curve): 13800 nmol·h/L
Cmax ([1]; read-out: Cmax (nmol/L), maximum plasma concentration): 2920 nmol/L
bioavailability ([1]; read-out: F (%), bioavailability): 85%
half-life ([1]; read-out: T1/2 (h), elimination half-life (converted)): 3.46 h

— paper PMC11439681, “The identification of potent dual-target monopolar spindle 1 (MPS1) and histone deacetylase 8 (HDAC8) inhibitors through pharmacophore modeling, molecular docking, molecular dynamics simulations, and biological evaluation” (Frontiers in Pharmacology, 2024)
